Measured values published in US20020137929A1, “1 - (3-heterocyclylphenyl) isothiourea, -isourea, -guanidine and -amidine herbicidal agents” (Intellectual Property Department, BASF Aktiengesellschaft, priority 1998, published 2002).

Legend:
CASOB (Sicklepod) [1] = assay: Postemergence herbicidal evaluation; format: in vivo, Cassia obtusifolia; details: for CASOB herbicidal rating: postemergence
Method in brief: (§1)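 Seedlings grown about two weeks were sprayed at 40 psi with compound dispersed in 50/50 acetone/water plus 0.5% TWEEN 20, at about 0.0156 to 0.500 kg/ha. Plants were kept in the greenhouse and scored 4–5 weeks later on a 0–9 visual scale against untreated controls.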

ZEAMX (Corn, Field) = assay: Preemergence herbicidal evaluation; format: in vivo, Zea mays; details: rated 4-5 weeks after treatment; for ZEAMX rating: preemergence, 0-9 scale
Method in brief: (§2)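 Steps: mix seeds into potting soil; plant atop ~1 inch soil; spray compound in aqueous acetone (~0.0156-0.500 kg/ha equivalent); maintain in greenhouse with watering; rate visually 0-9 versus control at 4-5 weeks.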

ECHCG (Barnyardgrass) = assay: Postemergence herbicidal evaluation; format: in vivo, Echinochloa crus-galli; details: for ECHCG herbicidal rating: postemergence
Method in brief: as §1

CASOB (Sicklepod) [2] = assay: Preemergence herbicidal evaluation; format: in vivo, Cassia obtusifolia; details: rated 4-5 weeks after treatment; for CASOB rating: preemergence, 0-9 scale
Method in brief: as §2

[3] = test system: GLXMAW (Soybean, Williams); assay: Postemergence herbicidal evaluation; format: in vivo, Glycine max, (L.) Merr. cv Williams; details: for GLXMAW herbicidal rating: postemergence
Method in brief: as §1

AMBEL (Ragweed, Common) = assay: Postemergence herbicidal evaluation; format: in vivo, Ambrosia artemisifolia; details: for AMBEL herbicidal rating: postemergence
Method in brief: as §1

GALAP (Galium) [4] = assay: Postemergence herbicidal evaluation; format: in vivo, Galium aparine; details: for GALAP herbicidal rating: postemergence
Method in brief: as §1

ORYSAT (Rice, Tebonnet) = assay: Postemergence herbicidal evaluation; format: in vivo, Oryza sativa, (L.) Tebonnet; details: for ORYSAT herbicidal rating: postemergence
Method in brief: as §1

[5] = test system: SAGPY (Arrowhead (Pygmaea)); assay: Preemergence weed control under flooded paddy conditions; format: in vivo, Sagittaria pygmaea; details: rated 3-4 weeks after treatment
Method in brief: (§3)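 First, seeds or propagules go into the top 0.5 cm of silt loam; next, water is held 1.5 to 3 cm over the soil; then compound (50/50 acetone/water) is pipetted into it at about 0.0313 to 0.500 kg/ha; finally plants are rated visually 0-9 after three to four weeks.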

[6] = test system: CHEAL (Lambsquarters, Common); assay: Postemergence herbicidal evaluation; format: in vivo, Chenopodium album; details: for CHEAL herbicidal rating: postemergence
Method in brief: as §1

GALAP (Galium) [7] = assay: Preemergence herbicidal evaluation; format: in vivo, Galium aparine; details: rated 4-5 weeks after treatment; for GALAP rating: preemergence, 0-9 scale
Method in brief: as §2

CYPSE (Flatsedge) [8] = assay: Preemergence weed control under flooded paddy conditions; format: in vivo, Cyperus serotinus; details: rated 3-4 weeks after treatment
Method in brief: as §3

CYPSE (Flatsedge) [9] = assay: Postemergence weed control under flooded paddy conditions; format: in vivo, Cyperus serotinus; details: postemergence weeds
Method in brief: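 Herbicidal effect is judged by eye on a 0–9 scale versus control, 3–4 weeks after dosing. Dosing is into flood water kept 1.5–3 cm over the soil, at about 0.0313–0.500 kg/ha in aqueous/acetone 50/50 v/v, on 3–5 cm weeds and 1.5–2.5-leaf rice seedlings.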

CYPIR (Rice Flatsedge) = assay: Preemergence weed control under flooded paddy conditions; format: in vivo, Cyperus iria; details: rated 3-4 weeks after treatment
Method in brief: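 Herbicidal effect is scored visually on a 0-9 scale against an untreated control, three to four weeks after compounds are pipetted into the flood water (1.5 to 3 cm deep) over seeds planted in silt loam at 0.5 cm depth. Rates: about 0.0313 to 0.500 kg/ha.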

SETVI (Foxtail, Green) = assay: Postemergence herbicidal evaluation; format: in vivo, Setaria viridis; details: for SETVI herbicidal rating: postemergence
Method in brief: as §1

## CCOC(=O)CN1C(=O)C(Cc2ccccc2OC(C)C(=O)OC)SC1=Nc1cc(-n2c(=O)cc(C(F)(F)F)n(C)c2=O)c(F)cc1Cl (stereo not drawn) [Compound 50, 2-{{2-Chloro-5-[3,6-dihydro-3-methyl-2,6-dioxo-4-(trifluoromethyl)-1(2H)-pyrimidinyl]-4-fluoro-phenyl}imino}-5-(o-hydroxybenzyl)-4-oxo-3-thiazolidineacetic acid, ethyl ester, ester with methyl lactate]
CASOB (Sicklepod) [1]; Rate 0.0156 kg/ha
  Postemergence herbicidal rating CASOB: 0.0
CASOB (Sicklepod) [1]; Rate 0.0313 kg/ha
  Postemergence herbicidal rating CASOB: 1.0
CASOB (Sicklepod) [1]; Rate 0.0625 kg/ha
  Postemergence herbicidal rating CASOB: 2.0
ZEAMX (Corn, Field); rate 0.0625 kg/ha
  Preemergence herbicidal rating ZEAMX: 0.0
ZEAMX (Corn, Field); rate 0.1250 kg/ha
  Preemergence herbicidal rating ZEAMX: 0.0
ZEAMX (Corn, Field); rate 0.2500 kg/ha
  Preemergence herbicidal rating ZEAMX: 0.0
ECHCG (Barnyardgrass); Rate 0.0156 kg/ha
  Postemergence herbicidal rating ECHCG: 0.0
ECHCG (Barnyardgrass); Rate 0.0313 kg/ha
  Postemergence herbicidal rating ECHCG: 0.0
ECHCG (Barnyardgrass); Rate 0.0625 kg/ha
  Postemergence herbicidal rating ECHCG: 2.0
CASOB (Sicklepod) [2]; rate 0.0625 kg/ha
  Preemergence herbicidal rating CASOB: 0.0
CASOB (Sicklepod) [2]; rate 0.1250 kg/ha
  Preemergence herbicidal rating CASOB: 9.0
CASOB (Sicklepod) [2]; rate 0.2500 kg/ha
  Preemergence herbicidal rating CASOB: 9.0
[3]; Rate 0.0156 kg/ha
  Postemergence herbicidal rating GLXMAW: 5.5
[3]; Rate 0.0313 kg/ha
  Postemergence herbicidal rating GLXMAW: 5.5
[3]; Rate 0.0625 kg/ha
  Postemergence herbicidal rating GLXMAW: 5.5
AMBEL (Ragweed, Common); Rate 0.0156 kg/ha
  Postemergence herbicidal rating AMBEL: 9.0
AMBEL (Ragweed, Common); Rate 0.0313 kg/ha
  Postemergence herbicidal rating AMBEL: 9.0
AMBEL (Ragweed, Common); Rate 0.0625 kg/ha
  Postemergence herbicidal rating AMBEL: 9.0
GALAP (Galium) [4]; Rate 0.0156 kg/ha
  Postemergence herbicidal rating GALAP: 0.0
GALAP (Galium) [4]; Rate 0.0313 kg/ha
  Postemergence herbicidal rating GALAP: 2.0
GALAP (Galium) [4]; Rate 0.0625 kg/ha
  Postemergence herbicidal rating GALAP: 4.0
ORYSAT (Rice, Tebonnet); Rate 0.0156 kg/ha
  Postemergence herbicidal rating ORYSAT: 1.0
ORYSAT (Rice, Tebonnet); Rate 0.0313 kg/ha
  Postemergence herbicidal rating ORYSAT: 1.0
ORYSAT (Rice, Tebonnet); Rate 0.0625 kg/ha
  Postemergence herbicidal rating ORYSAT: 2.0
[5]; 0.0313 kg/ha
  Herbicidal rating SAGPY: 2.0
[5]; 0.0625 kg/ha
  Herbicidal rating SAGPY: 2.0
[5]; 0.1250 kg/ha
  Herbicidal rating SAGPY: 3.0
[5]; 0.2500 kg/ha
  Herbicidal rating SAGPY: 3.0
[6]; Rate 0.0156 kg/ha
  Postemergence herbicidal rating CHEAL: 0.0
[6]; Rate 0.0313 kg/ha
  Postemergence herbicidal rating CHEAL: 3.0
[6]; Rate 0.0625 kg/ha
  Postemergence herbicidal rating CHEAL: 5.0
GALAP (Galium) [7]; rate 0.0625 kg/ha
  Preemergence herbicidal rating GALAP: 0.0
GALAP (Galium) [7]; rate 0.1250 kg/ha
  Preemergence herbicidal rating GALAP: 0.0
GALAP (Galium) [7]; rate 0.2500 kg/ha
  Preemergence herbicidal rating GALAP: 0.0
CYPSE (Flatsedge) [8]; 0.0313 kg/ha
  Herbicidal rating CYPSE: 0.0
CYPSE (Flatsedge) [8]; 0.0625 kg/ha
  Herbicidal rating CYPSE: 0.0
CYPSE (Flatsedge) [8]; 0.1250 kg/ha
  Herbicidal rating CYPSE: 0.0
CYPSE (Flatsedge) [8]; 0.2500 kg/ha
  Herbicidal rating CYPSE: 0.0
CYPSE (Flatsedge) [9]; rate 0.0313 kg/ha, 3-4 weeks after treatment
  Herbicidal rating CYPSE: 0.0
CYPSE (Flatsedge) [9]; rate 0.0625 kg/ha, 3-4 weeks after treatment
  Herbicidal rating CYPSE: 0.0
CYPSE (Flatsedge) [9]; rate 0.1250 kg/ha, 3-4 weeks after treatment
  Herbicidal rating CYPSE: 0.0
CYPSE (Flatsedge) [9]; rate 0.2500 kg/ha, 3-4 weeks after treatment
  Herbicidal rating CYPSE: 0.0
CYPIR (Rice Flatsedge); 0.0313 kg/ha
  Herbicidal rating CYPIR: 0.0
CYPIR (Rice Flatsedge); 0.0625 kg/ha
  Herbicidal rating CYPIR: 0.0
CYPIR (Rice Flatsedge); 0.1250 kg/ha
  Herbicidal rating CYPIR: 0.0
CYPIR (Rice Flatsedge); 0.2500 kg/ha
  Herbicidal rating CYPIR: 0.0
SETVI (Foxtail, Green); Rate 0.0156 kg/ha
  Postemergence herbicidal rating SETVI: 0.0
SETVI (Foxtail, Green); Rate 0.0313 kg/ha
  Postemergence herbicidal rating SETVI: 0.0
SETVI (Foxtail, Green); Rate 0.0625 kg/ha
  Postemergence herbicidal rating SETVI: 2.0

## CN1C(=O)C(CC(=O)NS(C)(=O)=O)SC1=Nc1cc(-n2c(=O)cc(C(F)(F)F)n(C)c2=O)c(F)cc1Cl (stereo not drawn) [Compound 97, 2-{{2-Chloro-5-[3,6-dihydro-3-methyl-2,6-dioxo-4-(trifluoromethyl)-1(2H)-pyrimidinyl]-4-fluorophenyl}imino}-3-methyl-N-(methylsulfonyl)-4-oxo-5-thiazolidineacetamide]
CASOB (Sicklepod) [1]; rate 0.0156 kg/ha
  CASOB herbicidal rating: 0.0
CASOB (Sicklepod) [1]; rate 0.0313 kg/ha
  CASOB herbicidal rating: 0.0
CASOB (Sicklepod) [1]; rate 0.0625 kg/ha
  CASOB herbicidal rating: 0.0
CASOB (Sicklepod) [1]; rate 0.1250 kg/ha
  CASOB herbicidal rating: 1.0
ZEAMX (Corn, Field); 0.1250 kg/ha
  ZEAMX rating: 0.0
ZEAMX (Corn, Field); 0.2500 kg/ha
  ZEAMX rating: 0.0
ZEAMX (Corn, Field); 0.5000 kg/ha
  ZEAMX rating: 4.0
ECHCG (Barnyardgrass); rate 0.0156 kg/ha
  ECHCG herbicidal rating: 1.0
ECHCG (Barnyardgrass); rate 0.0313 kg/ha
  ECHCG herbicidal rating: 1.0
ECHCG (Barnyardgrass); rate 0.0625 kg/ha
  ECHCG herbicidal rating: 3.0
ECHCG (Barnyardgrass); rate 0.1250 kg/ha
  ECHCG herbicidal rating: 6.0
CASOB (Sicklepod) [2]; 0.1250 kg/ha
  CASOB rating: 0.0
CASOB (Sicklepod) [2]; 0.2500 kg/ha
  CASOB rating: 1.0
CASOB (Sicklepod) [2]; 0.5000 kg/ha
  CASOB rating: 3.0
[3]; rate 0.0156 kg/ha
  GLXMAW herbicidal rating: 4.5
[3]; rate 0.0313 kg/ha
  GLXMAW herbicidal rating: 4.0
[3]; rate 0.0625 kg/ha
  GLXMAW herbicidal rating: 5.5
[3]; rate 0.1250 kg/ha
  GLXMAW herbicidal rating: 6.5
AMBEL (Ragweed, Common); rate 0.0156 kg/ha
  AMBEL herbicidal rating: 0.0
AMBEL (Ragweed, Common); rate 0.0313 kg/ha
  AMBEL herbicidal rating: 1.0
AMBEL (Ragweed, Common); rate 0.0625 kg/ha
  AMBEL herbicidal rating: 4.0
AMBEL (Ragweed, Common); rate 0.1250 kg/ha
  AMBEL herbicidal rating: 7.0
GALAP (Galium) [4]; rate 0.0156 kg/ha
  GALAP herbicidal rating: 0.0
GALAP (Galium) [4]; rate 0.0313 kg/ha
  GALAP herbicidal rating: 0.0
GALAP (Galium) [4]; rate 0.0625 kg/ha
  GALAP herbicidal rating: 1.0
GALAP (Galium) [4]; rate 0.1250 kg/ha
  GALAP herbicidal rating: 1.0
ORYSAT (Rice, Tebonnet); rate 0.0156 kg/ha
  ORYSAT herbicidal rating: 0.5
ORYSAT (Rice, Tebonnet); rate 0.0313 kg/ha
  ORYSAT herbicidal rating: 0.5
ORYSAT (Rice, Tebonnet); rate 0.0625 kg/ha
  ORYSAT herbicidal rating: 2.5
ORYSAT (Rice, Tebonnet); rate 0.1250 kg/ha
  ORYSAT herbicidal rating: 3.0
[6]; rate 0.0156 kg/ha
  CHEAL herbicidal rating: 0.0
[6]; rate 0.0313 kg/ha
  CHEAL herbicidal rating: 1.0
[6]; rate 0.0625 kg/ha
  CHEAL herbicidal rating: 4.0
[6]; rate 0.1250 kg/ha
  CHEAL herbicidal rating: 7.0
GALAP (Galium) [7]; 0.1250 kg/ha
  GALAP rating: 1.0
GALAP (Galium) [7]; 0.2500 kg/ha
  GALAP rating: 0.0
GALAP (Galium) [7]; 0.5000 kg/ha
  GALAP rating: 5.0
CYPSE (Flatsedge) [8]; 0.0313 kg/ha
  CYPSE herbicidal effect rating: 0.0
CYPSE (Flatsedge) [8]; 0.0625 kg/ha
  CYPSE herbicidal effect rating: 0.0
CYPSE (Flatsedge) [8]; 0.1250 kg/ha
  CYPSE herbicidal effect rating: 0.0
CYPSE (Flatsedge) [8]; 0.2500 kg/ha
  CYPSE herbicidal effect rating: 3.0
CYPSE (Flatsedge) [9]; Rate 0.0313 kg/ha, rated 3 to 4 weeks after treatment
  Herbicidal rating CYPSE: 0.0
CYPSE (Flatsedge) [9]; Rate 0.0625 kg/ha, rated 3 to 4 weeks after treatment
  Herbicidal rating CYPSE: 0.0
CYPSE (Flatsedge) [9]; Rate 0.1250 kg/ha, rated 3 to 4 weeks after treatment
  Herbicidal rating CYPSE: 0.0
CYPSE (Flatsedge) [9]; Rate 0.2500 kg/ha, rated 3 to 4 weeks after treatment
  Herbicidal rating CYPSE: 3.0
CYPIR (Rice Flatsedge); 0.0313 kg/ha
  CYPIR herbicidal effect rating: 0.0
CYPIR (Rice Flatsedge); 0.0625 kg/ha
  CYPIR herbicidal effect rating: 0.0
CYPIR (Rice Flatsedge); 0.1250 kg/ha
  CYPIR herbicidal effect rating: 3.0
CYPIR (Rice Flatsedge); 0.2500 kg/ha
  CYPIR herbicidal effect rating: 4.0
SETVI (Foxtail, Green); rate 0.0156 kg/ha
  SETVI herbicidal rating: 1.0
SETVI (Foxtail, Green); rate 0.0313 kg/ha
  SETVI herbicidal rating: 6.0
SETVI (Foxtail, Green); rate 0.0625 kg/ha
  SETVI herbicidal rating: 9.0
SETVI (Foxtail, Green); rate 0.1250 kg/ha
  SETVI herbicidal rating: 9.0
